Experimental data as given in patent US20030190289A1, “Formulations containing a glucocorticoid drug for the treatment of bronchopulmonary diseases” (priority 2000, published 2003).

Columns and labels:
[1] = cited from earlier work; for Rank order of topical activity: comparison between rac-BUD and its two epimers, Clissold et al.
[2] = Chemical and physical stability in solution; format: physicochemical; conditions: solution formulations
Description: In WO 00/30608 published on Jun.
In the same application, further 22R-BUD solution compositions in HFA 134a or 227 are described whose relevant respirable dose and the respirable fraction have been determined. In these compositions, the concentration of the active ingredient is comprised between 0.06% and 0.14% w/v equivalent to single doses of w 60, 63 and 70 μg, respectively. However, although said formulations give rise to good performances in term of respirable fraction due to the low amount of ethanol, the polarity of the whole solvent system constituted of 7-8% w/w of ethanol and 0.9% w/w of isopropyl myristate or PEG 400 is too low, leading to physical stability problem, i.e. partial precipitation of the active ingredient, after storage under stress conditions.

[3] = studies in the animals; Clissold et al. 1984, Edbäcker et al. 1987; cited from earlier work
[4] = Solubility in ethanol and ethanol/HFA mixtures; format: physicochemical; conditions: in ethanol and mixtures containing ethanol and HFA134a or ethanol and HFA227
[5] = HFA propellant containing ethanol and optionally a low volatility component; inhalers with internal surface of stainless steel, anodized aluminum or epoxy phenol resin lining; WO 00/30608; cited from earlier work
[6] = Clissold et al. 1984, Edbäcker et al. 1987; cited from earlier work
[7] = Pharmacokinetic and metabolic profile / systemic exposure of the epimers; format: in vivo; conditions: studies carried out by the applicant

| SMILES | Ratio of topical to systemic activity ([1]; compared with other corticosteroids) | Rank order of topical activity [1] | Chemical degradation tendency versus corresponding epimer [2] | Potency relative to the corresponding (22S) epimer [3] | Solubility versus corresponding epimer [4] | Stability in solution [5] | Pharmacokinetic and metabolic profile versus (22S) epimer [6] | Systemic exposure versus corresponding epimer [7] |
| --- | --- | --- | --- | --- | --- | --- | --- | --- |
| CCCC1O[C@@H]2C[C@H]3[C@@H]4CCC5=CC(=O)C=C[C@]5(C)[C@H]4[C@@H](O)C[C@]3(C)[C@]2(C(=O)CO)O1 (mixture of isomers) [rac-BUD, Budesonide] | high ratio of topical to systemic activity | 22R >rac-BUD >22S | – | – | – | – | – | – |
| CCC[C@@H]1O[C@@H]2C[C@H]3[C@@H]4CCC5=CC(=O)C=C[C@]5(C)[C@H]4[C@@H](O)C[C@]3(C)[C@]2(C(=O)CO)O1 [Composition 22R-BUD, (22R)-budesonide] | – | 22R >rac-BUD >22S | higher tendency to exhibit chemical degradation than its corresponding epimer | 2 to 3 times | significantly less soluble than its corresponding epimer | stable in solution | different pharmacokinetic and metabolic profile | different from that of its corresponding epimer |
| CCCC1OC2CC3C4CCC5=CC(=O)C=CC5(C)C4C(O)CC3(C)C2(C(=O)CO)O1 (stereo not shown) [Composition 22S] | – | 22R >rac-BUD >22S | – | – | – | – | – | – |
